Bridge positions count the residues as written; N and C are the ends. Peptide text beside a SMILES is read from it.
Legend:
[1] = system: colonic tumors after AOM/DSS treatment; settings: diet supplemented with tributyrin; Donohoe et al.; cited from earlier work
[2] = cited from earlier work
[3] = in vivo; cited from earlier work
[4] = Caecum and colon weight and diarrhea observation in the AOM/DSS mouse trial; type: in vivo, wild type mice (BALB/c)
Description: Thirty wild type mice (BALB/c) were maintained in individually ventilated cages (specific pathogen-free conditions) and divided in four age- and gender-matching groups at the age of 4 weeks. The schematic study set up of the mouse trial using AOM/DSS-based CRC mouse model is represented in FIG. 1.
Accordingly, group A received a semi-synthetic control diet (Hoevenaars F P M, van Schothorst E M, Horakova O, Voigt A, Rossmeisl M, Pico C, Caimari A, Kopecky J, Klaus S, Keijer J. BIOCLAIMS standard diet (BIOsd): a reference diet for nutritional physiology. Genes Nutr. 2012; 7:399-404), group B received a semi-synthetic diet with fiber-supplementation (containing about 46,2 g resistant starch type 2 per 1 kg diet), group C received a semi-synthetic control diet with linaclotide supplementation in drinking water (0.069 μg/mL; replaced every second day; dosage of linaclotide was calculated based on a previous study that applied 0.207 μg/day/mouse via oral gavage (Sharman S K, Islam B N, Hou Y, Singh N, Berger F G, Sridhar S, Yoo W, Browning D D. Cyclic-GMP-Elevating Agents Suppress Polyposis in ApcMin Mice by Targeting the Preneoplastic Epithelium. Cancer Prev Res (Phila Pa). 2018; 11:81-92.) and an assumed daily intake of 3 mL H2O per mouse; this mimics a daily intake of about 0.6 mg in a 70 kg healthy human, which is close to amounts used in previous clinical studies (Weinberg D S, Lin J E, Foster N R, Della'Zanna G, Umar A, Seisler D, Kraft W K, Kastenberg D M, Katz L C, Limburg P J, et al. Bioactivity of Oral Linaclotide in Human Colorectum for Cancer Chemoprevention. Cancer Prev Res Phila Pa. 2017; 10:345-54.)), group D received a combination of fiber-supplemented diet (containing about 46,2 g resistant starch type 2 per 1 kg diet), and linaclotide (0.069 μg/mL).
FIGS. 4 a) to d) represent graphs on the effect of butyrate acting as osmotic antagonist of linaclotide or GUCY2C signaling limiting the flow of H2O to the gut lumen. […] Single dots represent single mice; statistical analysis using One-way ANOVA with Kruskal-Wallis post-test, *=p<0.05. **=p<0.01.

Row | SMILES | tumor levels in the colon after AOM/DSS treatment [1] | solubility in water [2] | people taking the drug who have diarrhea [3] | caecum weight (indication of amounts of H2O in the gut lumen) ([4]; FIG. 4a) | colon weight (indication of amounts of H2O in the gut lumen) ([4]; FIG. 4b) | side effect diarrhea ([4]; at the administered linaclotide concentration (0.069 μg/mL drinking water))
1 | CCCC(=O)OCC(COC(=O)CCC)OC(=O)CCC [Tributyrin, 1,3-di(butanoyloxy)propan-2-yl butanoate] | lowest tumor levels | only poorly soluble | – | – | – | –
2 | C[C@@H]1NC(=O)[C@@H]2CCCN2C(=O)[C@H](CC(N)=O)NC(=O)[C@@H]2CSSC[C@H](N)C(=O)N[C@H]3CSSC[C@H](NC1=O)C(=O)N[C@@H]([C@@H](C)O)C(=O)NCC(=O)N[C@H](C(=O)N[C@@H](Cc1ccc(O)cc1)C(=O)O)CSSC[C@H](NC(=O)[C@H](Cc1ccc(O)cc1)NC(=O)[C@H](CCC(=O)O)NC3=O)C(=O)N2 [linaclotide, Linaclotide] (H-CCEYCCNPACTGCY-OH; disulfide 1-6, 2-10, 5-13) | – | – | More than 10% | higher | higher | did not observe

— patent US12599648B2, “Pharmaceutical composition comprising a combination of a guanylate cyclase C (GUCY2C) agonist and a short-chain fatty acid or prodrug thereof” (priority 2020, dated 2026)
